Assay results: patent publication US8937065B2, “Compositions and methods for modulating a kinase” (Clevexel Pharma, priority 2011, dated 2015)

What was measured:
[1] = system: B cell receptor NFAT-bla RA1; experiment: B cell receptor NFAT-bla RA1 inhibition (goat anti-human IgM stimulated, Ramos cells); settings: read-out: IC50 B cells mechanism-based: Ramos cells IgM stimulated NFAT activity
Experimental: The inhibition of B cell receptor NFAT-bla RA 1 (activated by goat anti-human IgM, which stimulates the SYK signaling pathway) by several compounds was determined using the Screening Protocol and Assay Conditions (Invitrogen, Madison, Wis.). The assays were performed according to manufacturer's protocols. See Example 4, Cell-line Specific Protocols B cell receptor activity in Ramos cells for details.
Mechanism-based inhibition assays using compound 7A (Table 1) were performed using GeneBLAzer® Technology (Invitrogen Corporation), according to manufacturer specifications. […] In this state, excitation of the coumarin results in fluorescence resonance energy transfer to the fluorescein moiety and emission of green light. […] Excitation of the coumarin in the presence of Beta-lactamase activity results in a blue fluorescence signal. […]
An activator assay screen was run to obtain the EC80 concentration of the known activator to add in step 3. • 1. […] 4 μL of the EC80 concentration of activator, as determined in an Activator assay, was added to all wells containing compound and known inhibitor to bring the final assay volume to 40 μL. • 4. […] The assay plate was read on a fluorescence plate reader (Tecan Safire) and the data is analyzed. […]
NFAT-bla RA1 cells were thawed. […] The plate was read on a fluorescence plate reader.

Mouse PK (PO) = settings: in vivo

Q: Which IC50 [1] does the source give for `O=C(CN1CCOCC1)Nc1cccc(-c2nc(-c3c[nH]c(C(=O)N4CCCC4)c3)cs2)c1` [7A, 2-morpholino-N-(3-(4-(5-(pyrrolidine-1-carbonyl)-1H-pyrrol-3-yl)thiazol-2-yl)phenyl)acetamide] here?
A: 124 nM

Q: And the bioavailability (Mouse PK (PO); read-out: Mouse PK (PO) % F)?
A: 88%

Q: What about the half-life (Mouse PK (PO); read-out: Mouse PK (PO) T½ (converted)) of the same compound?
A: 3.2 h
